Like-named read-outs stand apart in the source and are kept apart here.
What was measured:
wild-type RET kinase = biological target: T1, wild-type RET kinase (Homo sapiens, UniProt P07949); test: Biochemical IC50 of wild-type RET kinase (33P-ATP filter binding, Reaction Biology)
T1 construct: purchased Reaction Biology Corporation (contract assay; enzyme is the CRO's)
Experimental: (§1) For detailed test methods, the following references were referred to: T. Anastassiadis, S. W. Deacon, K. Devarajan, H. Ma, J. R. Peterson. […] Nat. Biotech.
(§2) The compounds of the present invention were dissolved in dimethyl sulfoxide (DMSO) to prepare 10 mM stock solutions, and ten different doses by 3-fold serial dilutions from 10 mM were prepared. The ATP concentration used in this determination was 1 μM.
(§3) Base reaction buffer: 20 mM 4-(2-hydroxyethyl)-1-piperazineethanesulfonic acid buffer (Hepes, pH 7.5), 10 mM magnesium chloride, 1 mM ethylene glycol-bis(3-aminoethylether)-N,N,N′,N′-tetraacetic acid (EGTA), 0.02% Brij™-35 (purchased from ThermoFisher Scientific), 0.02 mg/mL bovine serum albumin (BSA), 0.1 mM sodium orthovanadate (Na3VO4), 2 mM dithiothreitol (DTT), 1% dimethyl sulfoxide (DMSO).
(§4) a) adding the corresponding substrate to a freshly prepared base reaction buffer;
(§5) b) adding necessary cofactors;
(§6) c) adding kinase and shake gently;
(§7) d) adding the compounds in DMSO using Acoustic technology (Echo550; nanoliter range) and incubating at room temperature for 20 minutes;
(§8) e) adding 33P-ATP (specific activity 10 μCi/μL) to initiate the reaction;
(§9) f) incubating the kinase reaction at room temperature for 2 hours;
(§10) g) spotting the resultant of reaction on P81 ion exchange paper (purchased from Whatman);
(§11) h) detecting kinase activity by filter binding assay.
(§12) IC50 values were generated using Prism (GraphPad software).

RET(V804M) mutant = biological target: T2, RET(V804M) mutant (Homo sapiens, UniProt P07949, V804M); test: Biochemical IC50 of RET(V804M) mutant (33P-ATP filter binding, Reaction Biology)
T2 construct: purchased Reaction Biology Corporation (contract assay; enzyme is the CRO's)
Experimental: as §1, §2, §3, §4, §5, §6, §7, §8, §9, §10, §11, §12

RET-CCDC6 = biological target: T3, RET-CCDC6 (Homo sapiens, UniProt P07949); test: Biochemical IC50 of RET-CCDC6 fusion (33P-ATP filter binding, Reaction Biology)
T3 construct: CCDC6 (fusion partner, UniProt Q16204); purchased Reaction Biology Corporation (contract assay; enzyme is the CRO's); the other entry of the earlier key: CCDC6 (Q16204, Coiled-coil domain-containing protein 6)
T3 sequence (P07949 with tags, fused parts or gaps): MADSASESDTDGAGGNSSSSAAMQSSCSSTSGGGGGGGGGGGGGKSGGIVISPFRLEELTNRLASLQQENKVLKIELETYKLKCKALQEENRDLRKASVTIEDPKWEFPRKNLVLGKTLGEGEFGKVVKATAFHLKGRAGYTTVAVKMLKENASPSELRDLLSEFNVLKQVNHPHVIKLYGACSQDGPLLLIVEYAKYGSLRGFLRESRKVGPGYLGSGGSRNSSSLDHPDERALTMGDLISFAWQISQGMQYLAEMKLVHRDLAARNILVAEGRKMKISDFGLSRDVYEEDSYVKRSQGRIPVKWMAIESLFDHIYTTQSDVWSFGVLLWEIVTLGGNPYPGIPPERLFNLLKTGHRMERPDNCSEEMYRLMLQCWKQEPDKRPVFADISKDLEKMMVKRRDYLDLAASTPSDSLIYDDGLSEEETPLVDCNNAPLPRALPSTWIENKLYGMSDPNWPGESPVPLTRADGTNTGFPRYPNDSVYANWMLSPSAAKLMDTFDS
Experimental: as §1, §2, §3, §4, §5, §6, §7, §8, §9, §10, §11, §12

[1] = test system: Phospho-RET in LC-2/ad lung cancer cells; test: Phospho-RET ELISA in LC-2/ad tumor cells; format: cell-based; details: Homo sapiens, 1 h, read-out: Cell IC50 Phospho-RET
Experimental: (§13) The compounds of the present invention were dissolved in dimethyl sulfoxide (DMSO) to prepare 10 mM stock solutions, and ten different doses by 3-fold serial dilutions from 10 mM were prepared. An ELISA assay format was used in the test.
(§14) PathScan® Phospho-Ret (panTyr) and p44/42 MAPK (Thr202/Tyr204) (ERK) Sandwich ELISA kits were purchased from Cell Signaling Technology. The LC-2/ad lung cancer cell line was purchased from Sigma-Aldrich. […] The medium was supplemented with 10% fetal bovine serum (FBS), 100 μg/mL penicillin and 100 μg/mL streptomycin, and the cultures were maintained at 37° C. in a humidified atmosphere of 5% CO2 and 95% air.
(§15) a) 1.5×10^4 LC-2/ad cells were seeded in the wells of a 96-well tissue culture plate overnight;
(§16) b) the cells were treated with DMSO or the test compound in DMSO (the initial concentration was 1 μM, and ten doses by 3-fold serial dilutions) for one hour;
(§17) The plate was shaken for 1 minute, then placed on a rocking platform at 4° C. for 30 minutes;
(§18) d) 80 μL/well of lysate was added to the appropriate wells of each ELISA plate and the plate was incubated overnight at 4° C. on a rocking platform;
(§19) e) the contents of the plate were discarded into a container and the wells were washed for four times with 200 μL/well of 1×ELISA wash buffer;
(§20) f) 100 μL of reconstituted Phospho-Ret(panTyr) or Phospho-ERK(Thr202/Tyr204; p44/42MAPK) detection antibody was added to the appropriate wells and the plate was incubated at 37° C. for 1 hour;
(§21) g) the washing procedure was repeated and 100 μL of reconstituted HRP-linked secondary antibody was added to each well of two plates and the plates were incubated at 37° C. for 30 minutes;
(§22) h) the washing procedure was repeated, 100 μL of TMB substrate was added to each well, and the plates were incubated at 37° C. for 45 minutes;
(§23) i) 100 μL of STOP solution was added to each well and the plate was gently shaken for a few seconds.

[2] = test system: Phospho-ERK in LC-2/ad lung cancer cells; test: Phospho-ERK ELISA in LC-2/ad tumor cells; format: cell-based; details: Homo sapiens, 1 h, read-out: Cell IC50 Phospho-ERK
Experimental: as §13, §14, §15, §16, §17, §18, §19, §20, §21, §22, §23

[3] = wild-type RET kinase, ATP 1 μM, 33P-ATP filter binding, read-out: Biochemical IC50 RET
[4] = RET(V804M) mutant, ATP 1 μM, 33P-ATP filter binding, read-out: Biochemical IC50 RET (V804M)
[5] = RET-CCDC6 fusion, ATP 1 μM, 33P-ATP filter binding, read-out: Biochemical IC50 RET-CCDC6

T2 sequence (P07949 29-1114 V804M): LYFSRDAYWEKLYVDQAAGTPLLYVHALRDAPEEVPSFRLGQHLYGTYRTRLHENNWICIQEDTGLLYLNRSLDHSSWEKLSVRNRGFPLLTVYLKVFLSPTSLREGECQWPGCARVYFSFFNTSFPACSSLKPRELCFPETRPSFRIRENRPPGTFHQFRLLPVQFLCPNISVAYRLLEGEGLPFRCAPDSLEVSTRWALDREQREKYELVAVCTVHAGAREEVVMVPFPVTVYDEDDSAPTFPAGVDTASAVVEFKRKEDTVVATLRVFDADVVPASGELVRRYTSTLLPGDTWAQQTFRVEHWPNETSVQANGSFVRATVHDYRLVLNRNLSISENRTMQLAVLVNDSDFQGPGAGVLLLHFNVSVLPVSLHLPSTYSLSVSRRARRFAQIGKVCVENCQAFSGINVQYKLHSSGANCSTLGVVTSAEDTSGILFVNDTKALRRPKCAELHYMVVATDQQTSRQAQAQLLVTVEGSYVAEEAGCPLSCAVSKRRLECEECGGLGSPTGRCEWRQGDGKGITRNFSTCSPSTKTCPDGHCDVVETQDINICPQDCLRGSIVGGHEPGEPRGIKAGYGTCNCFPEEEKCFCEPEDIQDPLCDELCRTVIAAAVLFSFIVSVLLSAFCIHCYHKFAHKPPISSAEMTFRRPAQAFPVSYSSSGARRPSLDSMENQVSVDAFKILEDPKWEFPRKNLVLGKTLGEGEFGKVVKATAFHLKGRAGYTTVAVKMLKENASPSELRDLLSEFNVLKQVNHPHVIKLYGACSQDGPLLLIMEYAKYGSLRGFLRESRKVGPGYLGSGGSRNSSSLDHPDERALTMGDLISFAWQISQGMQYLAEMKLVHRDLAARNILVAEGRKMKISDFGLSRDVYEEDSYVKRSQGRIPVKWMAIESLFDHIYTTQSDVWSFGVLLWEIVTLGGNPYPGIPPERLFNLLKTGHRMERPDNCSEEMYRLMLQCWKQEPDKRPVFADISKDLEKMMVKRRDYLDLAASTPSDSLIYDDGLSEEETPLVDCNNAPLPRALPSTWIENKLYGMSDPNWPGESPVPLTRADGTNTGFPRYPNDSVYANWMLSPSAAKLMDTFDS
T1 sequence (P07949 29-1114): as the sequence (P07949 29-1114 V804M) above, with M776V counted along it

CC(C)(O)COc1cc(-c2ccc(N3CCS(=N)(=O)CC3)nc2)c2c(C#N)cnn2c1 [Ex. 2, 6-(2-hydroxy-2-methylpropoxy)-4-(6-(1-imino-1-oxothiomorpholinyl)pyridin-3-yl)pyrazolo[1,5-a]pyridine-3-carbonitrile]
IC50 (wild-type RET kinase; [3]): 4.23 nM
IC50 (RET(V804M) mutant; [4]): 21.2 nM
IC50 (RET-CCDC6; [5]): 2.81 nM

COc1ccc(N=S2(=O)CCN(c3ccc(-c4cc(OCC(C)(C)O)cn5ncc(C#N)c45)cn3)CC2)cn1 [Ex. 3, 6-(2-hydroxy-2-methylpropoxy)-4-(6-(1-((6-methoxypyridin-3-yl)imino)-1-oxothiomorpholinyl)pyridin-3-yl)pyrazolo[1,5-a]pyridine-3-carbonitrile]
IC50 (wild-type RET kinase; [3]): 1.66 nM
IC50 (RET(V804M) mutant; [4]): 3.78 nM
IC50 (RET-CCDC6; [5]): 0.993 nM

CC(C)CN=S1(=O)CCN(c2ccc(-c3cc(OCC(C)(C)O)cn4ncc(C#N)c34)cn2)CC1 [Ex. 4, 6-(2-hydroxy-2-methylpropoxy)-4-(6-(1-(isobutylimino)-1-oxothiomorpholinyl)pyridin-3-yl)pyrazolo[1,5-a]pyridine-3-carbonitrile]
IC50 (wild-type RET kinase; [3]): 6.74 nM
IC50 (RET(V804M) mutant; [4]): 55.7 nM
IC50 (RET-CCDC6; [5]): 4.59 nM

COc1ccc(CN=S2(=O)CCN(c3ccc(-c4cc(OCC(C)(C)O)cn5ncc(C#N)c45)cn3)CC2)cn1 [Ex. 5, 6-(2-hydroxy-2-methylpropoxy)-4-(6-(1-(((6-methoxypyridin-3-yl)methyl)imino)-1-oxothiomorpholinyl)pyridin-3-yl)pyrazolo[1,5-a]pyridine-3-carbonitrile]
IC50 (wild-type RET kinase; [3]): 3.62 nM
IC50 (RET(V804M) mutant; [4]): 17.9 nM
IC50 (RET-CCDC6; [5]): 2.09 nM

CC(C)(O)COc1cc(-c2ccc(N3CCS(=O)(=NC4CCNCC4)CC3)nc2)c2c(C#N)cnn2c1 [Ex. 7, 6-(2-hydroxy-2-methylpropoxy)-4-(6-(1-oxo-1-(piperidin-4-ylimino)thiomorpholinyl)pyridin-3-yl)pyrazolo[1,5-a]pyridine-3-carbonitrile]
IC50 (wild-type RET kinase; [3]): 18.1 nM
IC50 (RET(V804M) mutant; [4]): 165 nM
IC50 (RET-CCDC6; [5]): 12.6 nM

CC(C)(O)COc1cc(-c2ccc(N3CCC(N=S(C)(C)=O)CC3)nc2)c2c(C#N)cnn2c1 [Ex. 8, 4-(6-(4-((dimethyloxo-λ^4-sulfinyl)amino)piperidin-1-yl)pyridin-3-yl)-6-(2-hydroxy-2-methylpropoxy)pyrazolo[1,5-a]pyridine-3-carbonitrile]
IC50 (wild-type RET kinase; [3]): 9.45 nM
IC50 (RET(V804M) mutant; [4]): 63.6 nM
IC50 (RET-CCDC6; [5]): 5.89 nM

CC(C)(O)COc1cc(-c2ccc(N3CCC(N=[S@@](C)(=O)c4ccccc4)CC3)nc2)c2c(C#N)cnn2c1 [Ex. 9, 4-(6-(4-(((S)—S-methyl-S-phenyl-oxo-λ^4-sulfinyl)amino)piperidin-1-yl)pyridin-3-yl)-6-(2-hydroxy-2-methylpropoxy)pyrazolo[1,5-a]pyridine-3-carbonitrile]
IC50 (wild-type RET kinase; [3]): 14.2 nM
IC50 (RET(V804M) mutant; [4]): 138 nM
IC50 (RET-CCDC6; [5]): 8.14 nM

CC(C)(O)COc1cc(-c2ccc(N3CCC(N=[S@](C)(=O)c4ccccc4)CC3)nc2)c2c(C#N)cnn2c1 [Ex. 10, 4-(6-(4-(((R)—S-methyl-S-phenyl-oxo-λ^4-sulfinyl)amino)piperidin-1-yl)pyridin-3-yl)-6-(2-hydroxy-2-methylpropoxy)pyrazolo[1,5-a]pyridine-3-carbonitrile]
IC50 (wild-type RET kinase; [3]): 6.18 nM
IC50 (RET(V804M) mutant; [4]): 36 nM
IC50 (RET-CCDC6; [5]): 4.59 nM

Cn1cc(-c2cc(-c3ccc(N4CCS(=N)(=O)CC4)nc3)c3c(C#N)cnn3c2)cn1 [Ex. 12, 4-(6-(1-imino-1-oxothiomorpholinyl)pyridin-3-yl)-6-(1-methyl-1H-pyrazole-4-yl)pyrazolo[1,5-a]pyridine-3-carbonitrile]
IC50 (wild-type RET kinase; [3]): 0.849 nM
IC50 (RET(V804M) mutant; [4]): 5.55 nM
IC50 (RET-CCDC6; [5]): 0.523 nM
IC50 ([1]; LC-2-ad): 11.5 nM
IC50 [2]: 246 nM

CC(C)CN=S1(=O)CCN(c2ccc(-c3cc(-c4cnn(C)c4)cn4ncc(C#N)c34)cn2)CC1 [Ex. 13, 4-(6-(1-(isobutylimino)-1-oxothiomorpholinyl)pyridin-3-yl)-6-(1-methyl-1H-pyrazole-4-yl)pyrazolo[1,5-a]pyridine-3-carbonitrile]
IC50 (wild-type RET kinase): 0.89 nM
IC50 (RET(V804M) mutant): 5.1 nM
IC50 (RET-CCDC6): 0.416 nM
IC50 ([1]; LC-2-ad): 16.3 nM
IC50 [2]: 6.55 nM

Cn1cc(-c2cc(-c3ccc(N4CCC(N=[S@@](C)(=O)c5ccccc5)CC4)nc3)c3c(C#N)cnn3c2)cn1 [Ex. 17, 4-(6-(4-(((S)—S-methyl-S-phenyl-oxo-λ^4-sulfinyl)amino)piperidin-1-yl)pyridin-3-yl)-6-(1-methyl-1H-pyrazole-4-yl)pyrazolo[1,5-a]pyridine-3-carbonitrile]
IC50 (wild-type RET kinase; [3]): 1.49 nM
IC50 (RET(V804M) mutant; [4]): 10.6 nM
IC50 (RET-CCDC6; [5]): 0.776 nM

COc1ccc(N=S2(=O)CCN(c3ccc(-c4nc(-c5cnn(C)c5)cn5ncc(C#N)c45)cn3)CC2)cn1 [Ex. 22, 4-(6-(1-((6-methoxypyridin-3-yl)imino)-1-oxothiomorpholinyl)pyridin-3-yl)-6-(1-methyl-1H-pyrazole-4-yl)pyrazolo[1,5-a]pyrazine-3-carbonitrile]
IC50 (wild-type RET kinase; [3]): 0.673 nM
IC50 (RET(V804M) mutant; [4]): 3.24 nM
IC50 (RET-CCDC6; [5]): 0.41 nM

Cn1cc(-c2cn3ncc(C#N)c3c(-c3ccc(N4CCC(N=S(C)(C)=O)CC4)nc3)n2)cn1 [Ex. 23, 4-(6-(4-((dimethyloxo-λ^4-sulfinyl)amino)piperidin-1-yl)pyridin-3-yl)-6-(1-methyl-1H-pyrazole-4-yl)pyrazolo[1,5-a]pyrazine-3-carbonitrile]
IC50 (wild-type RET kinase): 4.09 nM
IC50 (RET(V804M) mutant): 25 nM
IC50 (RET-CCDC6): 2.16 nM

Cn1cc(-c2cn3ncc(C#N)c3c(-c3ccc(N4CCC(N=[S@@](C)(=O)c5ccccc5)CC4)nc3)n2)cn1 [Ex. 24, 4-(6-(4-(((S)—S-methyl-S-phenyl-oxo-λ^4-sulfinyl)amino)piperidin-1-yl)pyridin-3-yl)-6-(1-methyl-1H-pyrazole-4-yl)pyrazolo[1,5-a]pyrazine-3-carbonitrile]
IC50 (wild-type RET kinase; [3]): 4.06 nM
IC50 (RET(V804M) mutant; [4]): 26.3 nM
IC50 (RET-CCDC6; [5]): 1.93 nM

COc1ccc(CN2C3CC2CN(c2ccc(-c4cc(OCC(C)(C)O)cn5ncc(C#N)c45)cn2)C3)cn1 [LOXO292, reference compound]
IC50 ([1]; LC-2/ad lung cancer cells, one hour treatment, sandwich ELISA): 6.08 nM
IC50 [2]: > 1000 nM

— US20220380366A1, “HETEROCYCLIC SULFOXIMINE COMPOUND AND INTERMEDIATE THEREOF, PREPARATION METHOD THEREFOR, AND APPLICATION THEREOF” (priority 2019, published 2022)
